This note sets out measurements from patent US7728146B2, “Enzyme inhibitors” (Probiodrug AG, priority 2006, dated 2010).

Structures are written as SMILES.

As usually defined, the IC50 is the concentration that gives 50% inhibition.

One assay deals with DP IV (Homo sapiens, UniProt P27487). Description: DP IV inhibition IC50, parallel-synthesis compounds tested directly following synthesis (without purification). Also on record: IC50 DP4; other: tested directly following parallel synthesis, without purification; compounds of formula (Ib) from parallel synthesis, tested directly following synthesis. The assay is classed as biochemical. The note with it: DP IV inhibition; compounds of formula (Ib) from parallel synthesis, tested directly following synthesis (without purification); read-out: IC50. The protocol:
Compounds were immediately tested regarding their activity as DP IV inhibitors.
Substances are screened for inhibition of dipeptidyl peptidase (DP IV) by their ability to inhibit the hydrolysis of the DP IV specific substrate Glycyl-Prolyl-4-Nitroanilide (Gly-Pro-pNA). All compounds are diluted in DMSO and IC50 will be determined with 11 serial dilutions (1:2) starting with an final concentration of 100 μM. The final DMSO concentration in the assay is 5% (v/v). The method was automated using a Tecan Genesis Freedom liquid handler and a Genius Pro (Tecan) microplate reader.
DP IV from porcine kidney (pDP IV) or recombinant human DP IV (rhDP IV) is diluted in HEPES buffer to a final activity of approximately 40-50 μU*ml^−1. The DP IV is stored in a cooling rack (4° C.) on the liquid handler.
The assay may becarried out at room temperature using Freedom liquid handler connected with a Genios Pro microplate reader. Each sample is measured in duplicate. Each sample stock solution is prediluted with DMSO in a ratio of 1:5 in a polypropylen 96-well plate. From this predilution 10 serial (1:2) dilutions in DMSO are prepared. 13.5 μl of the 11 DMSO dilutions and DMSO alone are transferred to the measurement microplate (duplicates) and 86.5 μl water, 100 μl HEPES buffer and 50 μl substrate solution are added to each well. The enzymatic reaction is started by addition of 20 μl enzyme solution to each well, and then the microplate is immediately transferred to the microplate reader.
After short mixing (20 s) the release of 4-Nitroanilin (pNA) is monitored at 405 nm for 30 cycles (approx. 18 min).
Post assay calculations are done by the Magellan (Tecan) and Graphit Software. The linear slopes are calculated for each well and averaged for the duplicates. The residue activities are calculated in relation to a sample containing only solvent instead of inhibitor and expressed in %. Residue activities are plotted against the log of inhibitor concentrations and IC50 is calculated by an 4-parameter fitting ranging from 0 to 100%.
For `CC(N)c1c(-c2ccc(Cl)cc2Cl)ncn1Cc1ccccc1` (centres unmarked) [109b, 1-[3-Benzyl-5-(2,4-dichloro-phenyl)-3H-imidazol-4-yl]-ethylamine], the IC50 amounted to 7.3 µM.

As for `CCNCCn1cnc(-c2ccc(Cl)cc2Cl)c1CN` [69b, {2-[5-Aminomethyl-4-(2,4-dichloro-phenyl)-imidazol-1-yl]-ethyl}-ethyl-amine], the IC50 amounted to 19 µM.

For `COc1ccccc1Cn1cnc(-c2ccc(Cl)cc2Cl)c1C(C)N` (centres unmarked) [80b, 1-[5-(2,4-Dichloro-phenyl)-3-(2-methoxy-benzyl)-3H-imidazol-4-yl]-ethylamine], the IC50 worked out at 2.8 µM.

Consider `NCc1c(-c2ccc(Cl)cc2Cl)ncn1CC(c1ccccc1)c1ccccc1` [31b, C-[5-(2,4-Dichloro-phenyl)-3-(2,2-diphenyl-ethyl)-3H-imidazol-4-yl]-methylamine], for which the IC50 was 45.1 µM.

With `NCc1c(-c2ccc(Cl)cc2Cl)ncn1CCc1ccc(Cl)cc1` [102b, C-[3-[2-(4-Chloro-phenyl)-ethyl]-5-(2,4-dichloro-phenyl)-3H-imidazol-4-yl]-methylamine], the IC50 stood at 19 µM.

With `NCc1c(-c2ccc(Cl)cc2Cl)ncn1CCCO` [47b, 3-[5-Aminomethyl-4-(2,4-dichloro-phenyl)-imidazol-1-yl]-propan-1-ol], the IC50 worked out at 10.9 µM.

Still in this assay, the particulars now being: tested directly following parallel synthesis, without purification; read-out: IC50 DP4.
Turning to `NCc1c(-c2ccc(F)cc2F)ncn1Cc1ccccc1Cl` [Example 73a, C-[3-(2-Chloro-benzyl)-5-(2,4-difluoro-phenyl)-3H-imid-azol-4-yl]-methyl-amine], the IC50 is 27.1 µM.

`NCc1c(-c2ccc(F)cc2F)ncn1Cc1ccccn1` [Example 88a, C-[5-(2,4-Difluoro-phenyl)-3-pyri-din-2-yl-methyl-3H-imid-azol-4-yl]-methyl-amine]: the IC50 stood at 29.8 µM.

In the case of `NCc1c(-c2ccc(Cl)cc2Cl)ncn1Cc1c(Cl)cccc1Cl` [Example 60a, C-[3-(2,6-Dichloro-benzyl)-5-(2,4-dichloro-phenyl)-3H-imid-azol-4-yl]-methyl-amine], the IC50 is 2.8 µM.

For `NCc1c(-c2ccc(Cl)cc2Cl)ncn1Cc1ccccc1` [Example 47a, C-[3-Ben-zyl-5-(2,4-dichloro-phenyl)-3H-imid-azol-4-yl]-methyl-amine], the concentration for half-maximal inhibition (IC50) amounted to 0.1 µM.

As to `CCOc1ccccc1Cn1cnc(-c2ccc(F)cc2F)c1CN` [Example 82a, C-[5-(2,4-Difluoro-phenyl)-3-(2-ethoxy-benzyl)-3H-imid-azol-4-yl]-methyl-amine], the IC50 was determined as 14.5 µM.

For `NCc1c(-c2ccc(F)cc2F)ncn1Cc1ccco1` [Example 72a, C-[5-(2,4-Difluoro-phenyl)-3-furan-2-ylmethyl-3H-imidazol-4-yl]-methylamine], the IC50 stood at 11.8 µM.

`NCc1c(-c2ccc(Cl)cc2Cl)ncn1Cc1cc(Br)ccc1F` [Example 44a, C-[3-(5-Bromo-2-fluoro-benzyl)-5-(2,4-dichloro-phenyl)-3H-imid-azol-4-yl]-methyl-amine]: the IC50 was found to be 30.7 µM.

On to `NCc1c(-c2ccc(F)cc2F)ncn1Cc1cc(F)ccc1F` [Example 85a, C-[3-(2,5-Difluoro-benzyl)-5-(2,4-difluoro-phenyl)-3H-imid-azol-4-yl]-methyl-amine], for which the IC50 was 36.1 µM.

For the compound `NCc1c(-c2ccc(Cl)cc2Cl)ncn1Cc1ccccc1C(F)(F)F` [Example 51a, C-[5-(2,4-Dichloro-phenyl)-3-(2-tri-fluoromethyl-benzyl)-3H-imid-dazol-4-yl]-methyl-amine], the IC50 is 3.7 µM.

On to `NCc1c(-c2ccc(Cl)cc2Cl)ncn1Cc1cccc(C(F)(F)F)c1` [Example 38a, C-[5-(2,4-Dichloro-phenyl)-3-(3-tri-fluoromethyl-benzyl)-3H-imid-azol-4-yl]-methyl-amine], for which the concentration for half-maximal inhibition (IC50) was 1 µM.

With `CC(C)(C)Cn1cnc(-c2ccc(F)cc2Cl)c1CN` [Example 21a, C-[5-(2-Chloro-4-fluoro-phenyl)-3-(2,2-di-methyl-propyl)-3H-imid-azol-4-yl]-methyl-amine], the concentration for half-maximal inhibition (IC50) was 35.2 µM.
